Assay results: paper PMC3361267 (Journal of Medicinal Chemistry, 2012)
Entries after “also recorded” stand apart in the source; their conditions may differ. Where two headings read alike, the source gives them in different places. *1 amine or outer side, *2 acyl side, *3 side chain or, on linkers, in order; H or OH if unused. Where a SMILES comes first, the peptide text is derived from it. Bridges are numbered along the chain shown (N, C = ends). [ ]: non-standard residue; d: D form. X1 = O=C([C@@H](N[*:1])c1c([*:3])[nH]c2ccccc12)[*:2]; Leu(4R-OH,5-OH) = C[C@](O)(CO)C[C@H](N)C(=O)O; cisHyp = O=C(O)[C@@H]1C[C@H](O)CN1

Tests used:
OATP1B3 = target: T1, OATP1B3 (Homo sapiens, UniProt Q9NPD5); settings: for classification as OATP1B3 inhibitor/stimulator (single-point): 20 μM
T1 sequence (Q9NPD5 1-702): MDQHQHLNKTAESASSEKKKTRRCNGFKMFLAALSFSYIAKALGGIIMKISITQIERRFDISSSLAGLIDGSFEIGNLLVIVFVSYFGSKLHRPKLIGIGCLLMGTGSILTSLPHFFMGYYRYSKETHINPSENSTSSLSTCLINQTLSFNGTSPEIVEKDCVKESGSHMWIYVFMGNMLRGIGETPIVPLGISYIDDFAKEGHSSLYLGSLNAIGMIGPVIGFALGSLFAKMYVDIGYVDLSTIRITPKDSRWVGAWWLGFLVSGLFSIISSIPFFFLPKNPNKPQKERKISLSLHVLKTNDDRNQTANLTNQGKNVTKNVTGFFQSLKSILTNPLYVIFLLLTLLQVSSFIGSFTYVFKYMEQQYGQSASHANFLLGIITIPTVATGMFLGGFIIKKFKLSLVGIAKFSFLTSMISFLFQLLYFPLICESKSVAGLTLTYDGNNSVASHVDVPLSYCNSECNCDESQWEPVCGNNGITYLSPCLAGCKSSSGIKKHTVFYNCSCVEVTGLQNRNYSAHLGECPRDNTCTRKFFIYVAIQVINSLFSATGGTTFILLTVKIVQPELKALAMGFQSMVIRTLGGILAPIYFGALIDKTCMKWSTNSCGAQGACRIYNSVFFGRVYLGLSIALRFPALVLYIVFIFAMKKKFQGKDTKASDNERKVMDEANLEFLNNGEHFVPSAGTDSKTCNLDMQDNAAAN

OATP2B1 [1] = target: T2, OATP2B1 (Homo sapiens, UniProt O94956); settings: for classification as OATP2B1 inhibitor/stimulator (single-point): 20 μM
T2 sequence (O94956 1-709): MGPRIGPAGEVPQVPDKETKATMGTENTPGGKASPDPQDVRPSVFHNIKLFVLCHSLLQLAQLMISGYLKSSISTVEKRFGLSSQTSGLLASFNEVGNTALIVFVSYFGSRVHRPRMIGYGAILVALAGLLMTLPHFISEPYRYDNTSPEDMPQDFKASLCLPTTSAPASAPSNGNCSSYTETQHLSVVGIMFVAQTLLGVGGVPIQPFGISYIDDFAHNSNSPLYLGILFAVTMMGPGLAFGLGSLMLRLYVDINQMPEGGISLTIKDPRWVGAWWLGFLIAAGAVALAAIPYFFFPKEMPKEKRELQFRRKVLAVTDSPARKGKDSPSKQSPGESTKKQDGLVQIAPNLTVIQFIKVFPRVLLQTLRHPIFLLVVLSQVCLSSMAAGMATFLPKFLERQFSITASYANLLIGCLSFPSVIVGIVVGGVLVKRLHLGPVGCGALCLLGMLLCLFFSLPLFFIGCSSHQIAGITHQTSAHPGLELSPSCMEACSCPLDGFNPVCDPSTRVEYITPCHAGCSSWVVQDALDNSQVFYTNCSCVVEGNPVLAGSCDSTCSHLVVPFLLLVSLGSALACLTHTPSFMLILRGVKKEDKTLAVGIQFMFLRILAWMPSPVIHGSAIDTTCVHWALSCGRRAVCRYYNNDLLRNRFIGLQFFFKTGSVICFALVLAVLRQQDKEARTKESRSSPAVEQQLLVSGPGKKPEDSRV

[2] = system: OATP1B1, OATP1B3, and OATP2B1; test: Classification of specific and general OATP inhibitors; settings: 20 μM, inhibitor = at least 50% inhibition
OATP2B1 [3] = target: T2, OATP2B1; test: Transport kinetics of substrate uptake in OATP2B1-HEK293 cells; format: cell-based
BCRP = settings: cited from earlier work
OATP1B1 = target: T3, OATP1B1 (Homo sapiens, UniProt Q9Y6L6)
T3 sequence (Q9Y6L6 1-691): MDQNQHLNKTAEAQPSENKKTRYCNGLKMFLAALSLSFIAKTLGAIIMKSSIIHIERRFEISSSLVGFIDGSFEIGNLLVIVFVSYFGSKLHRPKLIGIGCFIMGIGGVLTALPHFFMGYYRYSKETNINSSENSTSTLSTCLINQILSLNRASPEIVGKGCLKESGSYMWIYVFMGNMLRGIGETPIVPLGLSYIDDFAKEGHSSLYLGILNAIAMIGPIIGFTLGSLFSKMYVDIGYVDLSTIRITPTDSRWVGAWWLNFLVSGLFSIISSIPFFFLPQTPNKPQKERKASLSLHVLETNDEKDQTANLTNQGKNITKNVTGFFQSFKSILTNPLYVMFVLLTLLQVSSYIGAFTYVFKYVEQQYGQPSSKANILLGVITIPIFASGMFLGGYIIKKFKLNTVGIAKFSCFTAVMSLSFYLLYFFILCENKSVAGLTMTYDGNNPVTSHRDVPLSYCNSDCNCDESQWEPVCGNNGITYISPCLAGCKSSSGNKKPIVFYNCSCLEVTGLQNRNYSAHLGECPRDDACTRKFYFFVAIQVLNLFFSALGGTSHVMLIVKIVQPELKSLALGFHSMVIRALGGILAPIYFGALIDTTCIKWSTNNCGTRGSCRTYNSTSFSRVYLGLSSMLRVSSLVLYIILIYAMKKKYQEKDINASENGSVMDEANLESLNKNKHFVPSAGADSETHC

MDR1 = settings: read-out: IC50 (MDR1); cited from earlier work
MRP2 = settings: read-out: IC50 (MRP2); cited from earlier work
[4] = OATP2B1 mediated uptake, HEK293

Compound: C[C@@H]1NC(=O)[C@H](C[C@@](C)(O)CO)NC(=O)[C@H]2NC(=O)[C@H](C)NC(=O)[C@@H]3C[C@H](O)CN3C(=O)[C@@H](CSc3[nH]c4ccccc4c32)NC(=O)[C@H]([C@@H](C)O)NC1=O [Phalloidin] (cyclo(AT[dC][cisHyp]A[X1][Leu(4R-OH,5-OH)]); thioether 3-6)
- OATP1B3 Inhib % (OATP1B3; human): 36.2%
- OATP2B1 Inhib % (OATP2B1 [1]; human): 24.1%

Compound: CC[C@H](C)C(=O)O[C@H]1C[C@H](O)C=C2C=C[C@H](C)[C@H](CC[C@@H](O)C[C@@H](O)CC(=O)O)[C@H]21 [pravastatin, Pravastatin]
- OATP inhibitor classification based on single-point inhibition assays [2]: specific inhibitors of one of the OATP transporters
- OATP inhibitor classification based on single-point inhibition assays ([2]; listed as pravastatin acid): specific OATP1B1 inhibitors

Compound: C[C@@H]1[C@H](O)[C@@H](C)/C=C/C=C/CC/C=C/C=C/C=C/C=C/C(O[C@H]2O[C@H](C)[C@@H](O)[C@H](N)[C@@H]2O)CC2O[C@](O)(CC(O)C(O)CCC(O)CC(O)CC(O)CC(=O)O[C@H]1C)CC(O)C2C(=O)O (stereo partly drawn) [nystatin, Nystatin]
- OATP1B3 Inhib % (OATP1B3): 74.9%
- OATP2B1 Inhib % (OATP2B1 [1]): 23.4%

Compound: C[C@]12CC[C@@H]3c4ccc(OS(=O)(=O)O)cc4CC[C@H]3[C@@H]1CCC2=O [estrone-3-sulfate]
- Km (OATP2B1 [3]; [4]): 38.2 ± 10.2 µM
- Vmax (OATP2B1 [3]; [4]): 455.2 ± 55.36 pmol/mg protein/min
- mean uptake of model substrate in OATP2B1 expressing HEK293 cells compared to passive uptake in mock-transfected cells (OATP2B1 [3]; n = 51 experiments): 44 times

Compound: O=C(O)c1cc(/N=N/c2ccc(S(=O)(=O)Nc3ccccn3)cc2)ccc1O [sulfasalazine, Sulfasalazine]
- OATP inhibitor classification based on single-point inhibition assays [2]: general OATP inhibitors

Compound: C[C@]12CC[C@H]3[C@@H](CCC4=CC(=O)CC[C@@]43C)[C@@H]1CC[C@@H]2O [testosterone, Testosterone]
- classification as OATP2B1 inhibitor/stimulator (single-point) (OATP2B1 [1]): stimulate

Compound: O=C1c2c(O)ccc(O)c2C(=O)c2c(NCCNCCO)ccc(NCCNCCO)c21 [mitoxantrone, Mitoxantrone]
- OATP inhibitor classification based on single-point inhibition assays [2]: OATP1B3, only three specific inhibitors

Compound: COc1ccc2c3c([nH]c2c1)[C@H](CC(C)C)N1C(=O)[C@H](CCC(=O)OC(C)(C)C)NC(=O)[C@@H]1C3 [KO143]
- concentration that completely inhibits BCRP (BCRP): 1 µM

Compound: CN(C)c1ccc(C=Cc2cc[n+](C)cc2)cc1 [N-methylpyridinium, ASP+]
- OATP1B1 Inhib % (OATP1B1): 27.9%
- OATP1B3 Inhib % (OATP1B3): -2.3%
- OATP2B1 Inhib % (OATP2B1 [1]): 12.8%

Compound: CC[C@]1(O)C[C@H]2CN(CCc3c([nH]c4ccccc34)[C@@](C(=O)OC)(c3cc4c(cc3OC)N(C=O)[C@H]3[C@@](O)(C(=O)OC)[C@H](OC(C)=O)[C@]5(CC)C=CCN6CC[C@]43[C@@H]65)C2)C1 [vincristine, Vincristine]
- OATP inhibitor classification based on single-point inhibition assays [2]: specific inhibitors of one of the OATP transporters; also recorded: OATP1B3, only three specific inhibitors
- OATP inhibitor classification based on single-point inhibition assays ([2]; listed as Vincristine): specific inhibitor of OATP1B3

Compound: COc1ccc2c(c1)c(CC(=O)O)c(C)n2C(=O)c1ccc(Cl)cc1 [indometacin, Indomethacin]
- OATP inhibitor classification based on single-point inhibition assays [2]: specific inhibitors of one of the OATP transporters

Compound: CCc1nn(CCCN2CCN(c3cccc(Cl)c3)CC2)c(=O)n1CCOc1ccccc1 [nefazodone, Nefazodone]
- classification as OATP1B1 inhibitor/stimulator (single-point) (OATP1B1; 20 μM): not interacting
- classification as OATP1B3 inhibitor/stimulator (single-point) (OATP1B3): inhibitor
- classification as OATP2B1 inhibitor/stimulator (single-point) (OATP2B1 [1]): inhibitor

Compound: C#Cc1cccc(Nc2ncnc3cc(OCCOC)c(OCCOC)cc23)c1 [erlotinib, Erlotinib]
- OATP inhibitor classification based on single-point inhibition assays [2]: specific inhibitors of one of the OATP transporters

Compound: CC(NCCC(c1ccccc1)c1ccccc1)c1ccccc1 (stereo not drawn) [fendiline, Fendiline]
- classification as OATP2B1 inhibitor/stimulator (single-point) (OATP2B1 [1]): stimulate

Compound: O=C(O)C(=O)O.[NH-][C@@H]1CCCC[C@H]1[NH-].[Pt+2] [Oxaliplatin]
- OATP1B1 Inhib % (OATP1B1): 13.0%
- OATP1B3 Inhib % (OATP1B3): 9.9%
- OATP2B1 Inhib % (OATP2B1 [1]): 8.2%

Compound: CCOc1ccc(-c2nc3cc(-c4nc5cc(N6CCN(C)CC6)ccc5[nH]4)ccc3[nH]2)cc1 [Hoechst 33342]
- OATP inhibitor classification based on single-point inhibition assays [2]: OATP1B3, only three specific inhibitors

Compound: Clc1ccccc1C(c1ccccc1)(c1ccccc1)n1ccnc1 [clotrimazole, Clotrimazole]
- classification as OATP1B3 inhibitor/stimulator (single-point) (OATP1B3): stimulator

Compound: CCC(C)(C)C(=O)O[C@H]1C[C@@H](C)C=C2C=C[C@H](C)[C@H](CC[C@@H](O)C[C@@H](O)CC(=O)O)[C@H]21 [simvastatin acid]
- OATP inhibitor classification based on single-point inhibition assays [2]: specific OATP1B1 inhibitors

Compound: COC(=O)N[C@H](C(=O)N[C@@H](Cc1ccccc1)[C@@H](O)CN(Cc1ccc(-c2ccccn2)cc1)NC(=O)[C@@H](NC(=O)OC)C(C)(C)C)C(C)(C)C [atazanavir, Atazanavir]
- OATP inhibitor classification based on single-point inhibition assays [2]: general OATP inhibitors

Compound: N[C@@H]1C[C@H]1c1ccccc1 (racemic) [Tranylcypromine]
- OATP1B1 Inhib % (OATP1B1): -9.5%
- OATP1B3 Inhib % (OATP1B3): -9.3%
- OATP2B1 Inhib % (OATP2B1 [1]): 15.5%

Compound: CC[C@H](C)C(=O)O[C@H]1C[C@@H](C)C=C2C=C[C@H](C)[C@H](CC[C@@H](O)C[C@@H](O)CC(=O)O)[C@H]21 [lovastatin acid]
- OATP inhibitor classification based on single-point inhibition assays [2]: specific OATP1B1 inhibitors

Compound: Olmesartan
- OATP2B1 Inhib % (OATP2B1 [1]): -7.9%

Compound: OCCN1CCN(CCC=C2c3ccccc3Sc3ccc(C(F)(F)F)cc32)CC1 [Flupenthixol]
- OATP1B3 Inhib % (OATP1B3; human): 13.5%
- OATP2B1 Inhib % (OATP2B1 [1]; human): 9.5%

Compound: cholecystokinin octapeptide [cholecystokinin octapeptide (CCK-8)]
- OATP1B3 Inhib % (OATP1B3): 96.9%
- OATP2B1 Inhib % (OATP2B1 [1]): 60.1%

Compound: CC(=O)[C@H]1CC[C@H]2[C@@H]3CCC4=CC(=O)CC[C@]4(C)[C@H]3CC[C@]12C [progesterone, Progesterone]
- classification as OATP2B1 inhibitor/stimulator (single-point) (OATP2B1 [1]): stimulate

Compound: COc1cccc2c1C(=O)c1c(O)c3c(c(O)c1C2=O)C[C@@](O)(C(=O)CO)C[C@@H]3O[C@H]1C[C@H](N)[C@H](O)[C@H](C)O1 [doxorubicin, Doxorubicin]
- OATP inhibitor classification based on single-point inhibition assays [2]: specific inhibitors of one of the OATP transporters

Compound: CN(C)C(=O)CCSC(SCCC(=O)O)c1cccc(/C=C/c2ccc3ccc(Cl)cc3n2)c1 (stereo not drawn) [MK571]
- IC50 (MDR1): 26 µM
- IC50 (MRP2): 10 µM
- IC50 (BCRP; read-out: IC50 (BCRP)): 50 µM
